US11572590B2, “Methods for evaluating tumor cell spheroids using 3D microfluidic cell culture device” (Dana-Farber Cancer Institute, Inc., priority 2017, dated 2023)
Like-named read-outs stand apart in the source and are kept apart here.

Tests used:
Experiment in all cases: SelectScreen Kinase Profiling, single point inhibition and IC50 for off-target kinases
Type in all cases: biochemical
off-target kinases [1] = molecular target: off-target kinases (Homo sapiens, UniProt Q9UIK4); settings: DAPK2, LanthaScreen Binding
Chain of off-target kinases (Homo sapiens, UniProt Q9UIK4) (Q9UIK4 whole entry): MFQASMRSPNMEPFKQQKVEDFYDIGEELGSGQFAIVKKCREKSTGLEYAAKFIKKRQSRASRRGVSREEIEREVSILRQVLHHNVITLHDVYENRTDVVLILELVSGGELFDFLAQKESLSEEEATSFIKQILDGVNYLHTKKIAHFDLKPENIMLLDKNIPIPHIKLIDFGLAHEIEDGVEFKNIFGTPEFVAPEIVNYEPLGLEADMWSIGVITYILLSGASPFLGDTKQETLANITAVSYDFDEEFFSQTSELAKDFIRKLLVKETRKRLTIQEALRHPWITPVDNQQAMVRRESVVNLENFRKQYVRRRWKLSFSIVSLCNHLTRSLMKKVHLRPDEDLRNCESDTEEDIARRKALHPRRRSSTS

off-target kinases [2] = molecular target: T1, off-target kinases (Homo sapiens, UniProt Q6PHR2); settings: ULK3, LanthaScreen Binding
T1 sequence (Q6PHR2 1-472): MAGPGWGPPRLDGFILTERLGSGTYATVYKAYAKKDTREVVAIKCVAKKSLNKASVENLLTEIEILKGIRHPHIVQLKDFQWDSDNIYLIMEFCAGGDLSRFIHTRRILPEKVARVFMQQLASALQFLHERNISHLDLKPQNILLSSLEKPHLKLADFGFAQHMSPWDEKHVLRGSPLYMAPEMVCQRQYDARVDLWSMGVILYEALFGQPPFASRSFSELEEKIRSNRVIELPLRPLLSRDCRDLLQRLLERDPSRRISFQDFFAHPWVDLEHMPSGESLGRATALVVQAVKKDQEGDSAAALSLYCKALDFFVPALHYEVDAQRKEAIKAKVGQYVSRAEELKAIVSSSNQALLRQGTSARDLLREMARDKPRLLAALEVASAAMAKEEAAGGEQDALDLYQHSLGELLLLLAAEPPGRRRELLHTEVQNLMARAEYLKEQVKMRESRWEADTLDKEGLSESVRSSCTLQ

off-target kinases [3] = molecular target: T2, off-target kinases (Homo sapiens, UniProt Q15139); settings: PRKD1 (PKC mu), ATP Km app, ZLYTE
T2 sequence (Q15139 1-912): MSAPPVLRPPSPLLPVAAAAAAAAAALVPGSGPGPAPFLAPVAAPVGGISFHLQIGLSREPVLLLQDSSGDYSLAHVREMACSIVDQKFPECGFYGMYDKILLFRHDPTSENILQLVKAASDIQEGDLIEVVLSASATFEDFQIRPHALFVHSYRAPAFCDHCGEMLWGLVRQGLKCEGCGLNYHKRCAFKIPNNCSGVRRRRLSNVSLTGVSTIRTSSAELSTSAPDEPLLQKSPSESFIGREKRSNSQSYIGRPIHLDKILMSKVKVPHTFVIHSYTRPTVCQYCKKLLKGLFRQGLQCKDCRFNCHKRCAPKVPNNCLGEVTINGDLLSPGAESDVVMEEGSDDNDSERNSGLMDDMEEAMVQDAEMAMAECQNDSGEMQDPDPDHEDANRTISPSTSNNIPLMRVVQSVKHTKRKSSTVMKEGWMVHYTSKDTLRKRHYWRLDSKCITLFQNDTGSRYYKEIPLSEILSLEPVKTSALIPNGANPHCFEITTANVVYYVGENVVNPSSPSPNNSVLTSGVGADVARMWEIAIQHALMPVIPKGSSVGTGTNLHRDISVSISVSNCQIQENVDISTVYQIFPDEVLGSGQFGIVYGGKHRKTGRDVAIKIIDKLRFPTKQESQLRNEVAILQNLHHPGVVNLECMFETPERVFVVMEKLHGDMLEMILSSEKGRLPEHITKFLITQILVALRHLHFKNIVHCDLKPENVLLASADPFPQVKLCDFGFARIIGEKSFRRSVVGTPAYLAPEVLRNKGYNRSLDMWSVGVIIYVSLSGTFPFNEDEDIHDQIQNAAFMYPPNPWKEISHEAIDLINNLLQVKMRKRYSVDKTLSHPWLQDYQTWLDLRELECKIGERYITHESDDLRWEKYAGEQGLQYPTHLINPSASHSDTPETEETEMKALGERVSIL

off-target kinases [4] = molecular target: off-target kinases (Homo sapiens, UniProt P05771); settings: PRKCB1 (PKC beta I), ZLYTE, ATP Km app
Chain of off-target kinases (Homo sapiens, UniProt P05771) (P05771 whole entry): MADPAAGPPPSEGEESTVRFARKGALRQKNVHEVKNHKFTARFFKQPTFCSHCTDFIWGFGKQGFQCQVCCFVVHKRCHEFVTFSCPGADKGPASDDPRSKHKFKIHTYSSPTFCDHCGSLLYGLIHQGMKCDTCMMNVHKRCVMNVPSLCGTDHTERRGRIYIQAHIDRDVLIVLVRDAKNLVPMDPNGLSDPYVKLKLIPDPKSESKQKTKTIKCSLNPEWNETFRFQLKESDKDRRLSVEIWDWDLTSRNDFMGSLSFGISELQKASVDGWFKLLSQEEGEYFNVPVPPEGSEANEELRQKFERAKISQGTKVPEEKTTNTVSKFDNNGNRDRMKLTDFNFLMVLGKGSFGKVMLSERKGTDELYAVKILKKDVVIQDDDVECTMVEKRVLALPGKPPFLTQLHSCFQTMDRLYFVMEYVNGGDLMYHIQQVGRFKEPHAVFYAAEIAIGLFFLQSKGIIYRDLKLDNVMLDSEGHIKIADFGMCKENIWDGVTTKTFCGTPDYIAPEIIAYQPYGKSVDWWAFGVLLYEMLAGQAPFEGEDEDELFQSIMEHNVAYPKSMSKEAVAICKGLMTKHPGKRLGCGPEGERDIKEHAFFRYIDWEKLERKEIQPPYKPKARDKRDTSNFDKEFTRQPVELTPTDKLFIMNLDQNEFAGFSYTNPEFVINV

For N#Cc1cc(-c2ncnc(Nc3ccc(N4CCN(C5COC5)CC4)cc3)n2)ccc1OC1CCOCC1 [Compound 1, 5-(4-((4-(4-(oxetan-3-yl)piperazin-1-yl)phenyl)amino)-1,3,5-triazin-2-yl)-2-((tetrahydro-2H-pyran-4-yl)oxy)benzonitrile], the inhibition (off-target kinases [1]; read-out: % Inhibition 1) was 60%, the inhibition (off-target kinases [1]; read-out: % Inhibition 2) was 53% and the inhibition (off-target kinases [1]; read-out: % Inhibition Avg) was 56%. For the same molecule, the inhibition (off-target kinases [2]; read-out: % Inhibition 1) was 101%, the inhibition (off-target kinases [2]; read-out: % Inhibition 2) was 104% and the inhibition (off-target kinases [2]; read-out: % Inhibition Avg) was 102%. The inhibition (off-target kinases [3]; read-out: % Inhibition 1) was 100%, the inhibition (off-target kinases [3]; read-out: % Inhibition 2) was 95% and the inhibition (off-target kinases [3]; read-out: % Inhibition Avg) was 98%. For the same molecule, the inhibition (off-target kinases [4]; read-out: % Inhibition 1) was 5%, the inhibition (off-target kinases [4]; read-out: % Inhibition 2) was 3% and the inhibition (off-target kinases [4]; read-out: % Inhibition Avg) was 4%.
